Tests used:
Type in all cases: in vivo
corn = assay: Corn safety laboratory test, visual observation and overall conclusion
Description: (§1) Three corn varieties: Zhengdan 958, white waxy corn, and sweet corn (Runhua sweet corn).
(§2) The soil used for the test was a mixture of surface 20 cm loam and vermiculite, mixed in a volume ratio of 3:1 to form a culture soil. The test corn was cultured in a glass greenhouse with a temperature ranging from 25° C. to 35° C. and under natural light.
(§3) A measured quantity of corn seeds were sown in plastic pots with a diameter of 15 cm, and covered with 2-3 cm of soil. The ports were then placed in enamel trays filled with water, and watered by bottom irrigation. After sowing, the pots were transferred to the glass greenhouse for cultivation and growth.
(§4) In the corn safety test, dosages were set for the two Compounds (Compound I of the present invention and Compound II of the present invention) and the control herbicide Topramezone, which were 15, 30, 60, and 120 grams of active ingredient per hectare respectively. In addition, a blank control was also prepared.
(§5) The required amount of the herbicide was accurately measured out, an appropriate amount of emulsifier and organic solvent were added to dissolve the herbicide, and then a certain amount of water was added therein until the herbicide was diluted to the required dosage by using the serial dilution method for standby.
(§6) Corn stems and leaves were uniformly sprayed at the 3-4-leaf stage.
(§7) The ASS-3 automatic control spraying system with a fan-shaped nozzle was used indoors for herbicide application. Depending on the nozzle pressure and flow rate, 50 mL of herbicide solution was applied to a spraying area of 1.1 m^2 (which was equivalent to the water consumption of 30 L per mu). The system's operating speed was calibrated. The plastic pots to be treated were arranged evenly on the spraying platform to ensure uniform treatment. The spray pressure was set to 0.35 MPa, and the flow rate of the fan-shaped nozzle was set to 800 mL/min. The spraying was carried out in sequence from the low dosage to the high dosage. Each treatment was repeated three times.
(§8) The herbicide was applied once. After spraying, the pots were air-dried for one day and then placed in the glass greenhouse. Regular watering was conducted to maintain moisture.
(§9) After application of the herbicide, whether there were any phytotoxic symptoms in the corn for each treatment was recorded. If yes, the phytotoxicity symptoms and grade were recorded in detail. 15 days after application, the fresh weight of the corn in each treatment was measured and the fresh weight control efficacy was calculated to assess the safety of the herbicide on the corn.

Corn (Sweet Corn) = assay: Corn safety laboratory test; conditions: for Fresh Weight / Fresh Weight Control Efficacy: 15 days after application
Description: as §1, §2, §3, §4, §5, §6, §7, §8, §9
(§10) The treatment results were calculated according to the following formula: fresh weight control efficacy (%)=(control fresh weight−treatment fresh weight)/control fresh weight×100.

Corn (Zhengdan 958) = assay: Corn safety laboratory test; conditions: for Fresh Weight / Fresh Weight Control Efficacy: 15 days after application
Description: as §1, §2, §3, §4, §5, §6, §7, §8, §9, §10

[1] = system: test weeds (grassy weeds, sedge, broadleaf weeds); assay: Laboratory bioactivity efficacy test 2.1, symptoms on the test weeds; conditions: test 2.1 weeds
Text: Refer to the “Pesticides guidelines for laboratory bioactivity tests Part 4: Foliar spray application test for herbicide activity, NY/T 1155.4-2006”.
• grassy weeds: Setaria viridis, Chloris virgata; • sedge: Cyperus rotundus; • Broadleaf weeds: Amaranthus retroflexus, Chenopodium album, Acalypha australis, Commelina communis, Convolvulus arvensis, Cirsium setosum, and Eclipta prostrata. 2.1.3 Test Conditions
as §2
as §3, with “weed” for “corn”, “9” for “15”, “1-2 mm” for “2-3 cm”
Five dosages were set for Compound I, Compound II and the control herbicide Topramezone, which were 3.75, 7.5, 15, 30 and 60 grams of active ingredient per hectare respectively. In addition, a blank control was also prepared.
as §5
The fresh weight of each treatment was surveyed 14 days after the application of the herbicide. The fresh weight control efficacy was calculated according to the following formula: fresh weight control efficacy (%)=(control fresh weight−treatment fresh weight)/control fresh weight×100.

[2] = Sweet Corn, dosage 15 g a.i./ha
[3] = Sweet Corn, dosage 30 g a.i./ha
[4] = Sweet Corn, dosage 60 g a.i./ha
[5] = Sweet Corn, dosage 120 g a.i./ha
[6] = Zhengdan 958, dosage 15 g a.i./ha
[7] = Zhengdan 958, dosage 30 g a.i./ha
[8] = Zhengdan 958, dosage 60 g a.i./ha
[9] = Zhengdan 958, dosage 120 g a.i./ha

Cc1c(C(=O)c2cnn(C)c2O)ccc(S(C)(=O)=O)c1C1=NOCC1 [Topramezone]
Visual observation of corn (corn; 3 to 7 days after application): safe for corn
Visual observation of corn (corn; 10 days after application): safe for corn
Visual observation of corn (corn; 15 days after application): basically growing normally
Overall safety for corn (corn; Zhengdan 958, waxy corn and sweet corn): high safety levels
Corn Growth Status (Corn (Sweet Corn); [2]): Good, Normal Growth
Fresh Weight (Corn (Sweet Corn); [2]): 7.6 g
Fresh Weight Control Efficacy (Corn (Sweet Corn); [2]): −2.0%
Corn Growth Status (Corn (Sweet Corn); [3]): Good, Normal Growth
Fresh Weight (Corn (Sweet Corn); [3]): 7.4 g
Fresh Weight Control Efficacy (Corn (Sweet Corn); [3]): −0.3%
Corn Growth Status (Corn (Sweet Corn); [4]): Good, Normal Growth
Fresh Weight (Corn (Sweet Corn); [4]): 7.4 g
Fresh Weight Control Efficacy (Corn (Sweet Corn); [4]): −0.3%
Corn Growth Status (Corn (Sweet Corn); [5]): Good, Normal Growth
Fresh Weight (Corn (Sweet Corn); [5]): 7.3 g
Fresh Weight Control Efficacy (Corn (Sweet Corn); [5]): 1.0%
Safety to corn (in words) (Corn (Sweet Corn); sweet corn, all dosages): safe
Growth of corn / phytotoxicity (in words) (Corn (Zhengdan 958); Zhengdan 958, all dosages): normal
Corn Growth Status (Corn (Zhengdan 958); [6]): Good, Normal Growth
Fresh Weight (Corn (Zhengdan 958); [6]): 15.2 g
Fresh Weight Control Efficacy (Corn (Zhengdan 958); [6]): −0.5%
Corn Growth Status (Corn (Zhengdan 958); [7]): Good, Normal Growth
Fresh Weight (Corn (Zhengdan 958); [7]): 14.9 g
Fresh Weight Control Efficacy (Corn (Zhengdan 958); [7]): 1.8%
Corn Growth Status (Corn (Zhengdan 958); [8]): Good, Normal Growth
Fresh Weight (Corn (Zhengdan 958); [8]): 15.2 g
Fresh Weight Control Efficacy (Corn (Zhengdan 958); [8]): −0.5%
Corn Growth Status (Corn (Zhengdan 958); [9]): Good, Normal Growth
Fresh Weight (Corn (Zhengdan 958); [9]): 15.6 g
Fresh Weight Control Efficacy (Corn (Zhengdan 958); [9]): −2.8%
Symptoms on the test weeds [1]: clear pesticidal efficacy symptoms

Cc1c(C(=O)c2cnn(C)c2OC(=O)C(C)(C)C)ccc(S(C)(=O)=O)c1C1=NOCC1 [Compound II, 4-(3-(4,5-dihydroisoxazol-3-yl)-2-methyl-4-(methylsulfonyl)benzoyl)-1-methyl-1H-pyrazol-5-yl pivalate]
Corn Growth Status (Corn (Sweet Corn); in vivo): Good, Normal Growth
Safety to corn (in words) (Corn (Sweet Corn); in vivo): safe
Corn Growth Status (Corn (Zhengdan 958); in vivo): Good, Normal Growth
Growth of corn / phytotoxicity (in words) (Corn (Zhengdan 958); in vivo): normal, without causing any phytotoxicity
Symptoms on the test weeds [1]: clear pesticidal efficacy symptoms

COC(=O)OC(C)Oc1c(C(=O)c2ccc(S(C)(=O)=O)c(C3=NOCC3)c2C)cnn1C (stereo not drawn) [Compound I, 1-((4-(3-(4,5-dihydroisoxazol-3-yl)-2-methyl-4-(methylsulfonyl)benzoyl)-1-methyl-1H-pyrazol-5-yl)oxy)ethyl methyl carbonate]
Visual observation of corn (corn; in vivo): all normal
Corn Growth Status (Corn (Sweet Corn); in vivo): Good, Normal Growth
Growth of corn / phytotoxicity (in words) (Corn (Sweet Corn); in vivo): normal, without causing any phytotoxicity
Corn Growth Status (Corn (Zhengdan 958); in vivo): Good, Normal Growth
Growth of corn / phytotoxicity (in words) (Corn (Zhengdan 958); in vivo): normal, without causing any phytotoxicity
Symptoms on the test weeds [1]: clear pesticidal efficacy symptoms
